Experimental data as given in PubChem BioAssay (NCI).
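1) Cells in 96-well plates. 2) Compound, 48 h, 5 concentrations. 3) Linear interpolation between surrounding doses. 4) Unreached endpoint = highest concentration. GI50 marks 50% less growth. TGI: concentration producing complete growth inhibition.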

Assays:
Test in all cases: NCI anticancer screen, dose series, 48 h
HOP-62 NSCLC = tested on: HOP-62 NSCLC
KM12 colon = tested on: KM12 colon
A498 renal = tested on: A498 renal
HCT-116 colon = tested on: HCT-116 colon
RXF 393 renal = tested on: RXF 393 renal
DU-145 prostate = tested on: DU-145 prostate
TK-10 renal = tested on: TK-10 renal
MOLT-4 leukemia = tested on: MOLT-4 leukemia
M14 melanoma = tested on: M14 melanoma
OVCAR-3 ovarian = tested on: OVCAR-3 ovarian
OVCAR-4 ovarian = tested on: OVCAR-4 ovarian
HCT-15 colon = tested on: HCT-15 colon
SF-295 CNS = tested on: SF-295 CNS
SK-MEL-28 melanoma = tested on: SK-MEL-28 melanoma
SK-MEL-5 melanoma = tested on: SK-MEL-5 melanoma
SW-620 colon = tested on: SW-620 colon
RPMI-8226 leukemia = tested on: RPMI-8226 leukemia
BT-549 breast = tested on: BT-549 breast
SNB-75 CNS = tested on: SNB-75 CNS
SF-539 CNS = tested on: SF-539 CNS
OVCAR-8 ovarian = tested on: OVCAR-8 ovarian
HCC-2998 colon = tested on: HCC-2998 colon
UACC-257 melanoma = tested on: UACC-257 melanoma
EKVX NSCLC = tested on: EKVX NSCLC
CAKI-1 renal = tested on: CAKI-1 renal
SR leukemia = tested on: SR leukemia
ACHN renal = tested on: ACHN renal
T-47D breast = tested on: T-47D breast
SNB-19 CNS = tested on: SNB-19 CNS
NCI-H23 lung = tested on: NCI-H23 lung
NCI-H460 lung = tested on: NCI-H460 lung
MDA-MB-231 breast = tested on: MDA-MB-231 breast
HOP-92 NSCLC = tested on: HOP-92 NSCLC
A549 NSCLC = tested on: A549 NSCLC
OVCAR-5 ovarian = tested on: OVCAR-5 ovarian
UO-31 renal = tested on: UO-31 renal
MALME-3M melanoma = tested on: MALME-3M melanoma
COLO 205 colon = tested on: COLO 205 colon
SN12C renal = tested on: SN12C renal
SK-OV-3 ovarian = tested on: SK-OV-3 ovarian
LOX IMVI melanoma = tested on: LOX IMVI melanoma
HT29 colon = tested on: HT29 colon
UACC-62 melanoma = tested on: UACC-62 melanoma
MCF7 breast = tested on: MCF7 breast
PC-3 prostate = tested on: PC-3 prostate
SF-268 CNS = tested on: SF-268 CNS
786-0 renal = tested on: 786-0 renal
HS 578T breast = tested on: HS 578T breast
NCI-H522 lung = tested on: NCI-H522 lung
CCRF-CEM leukemia = tested on: CCRF-CEM leukemia
K-562 leukemia = tested on: K-562 leukemia
IGROV1 ovarian = tested on: IGROV1 ovarian
HL-60(TB) leukemia = tested on: HL-60(TB) leukemia
SK-MEL-2 melanoma = tested on: SK-MEL-2 melanoma
MDA-MB-435 = tested on: MDA-MB-435
NCI-H226 lung = tested on: NCI-H226 lung
NCI/ADR-RES ovarian = tested on: NCI/ADR-RES ovarian

## O=C(CN1CCN(c2ncnc3ccccc23)CC1)Nc1ccc(Cl)cc1C(=O)c1ccccc1Cl
HOP-62 NSCLC
  GI50: 0.626 µM
  TGI: 6.07 µM
KM12 colon
  TGI: 5.08 µM
A498 renal
  GI50: 1.5 µM
  TGI: 3.69 µM
HCT-116 colon
  GI50: 0.417 µM
  TGI: 11 µM
RXF 393 renal
  GI50: 0.61 µM
  TGI: 1.31 µM
DU-145 prostate
  GI50: 0.368 µM
  TGI: 12 µM
TK-10 renal
  GI50: 0.501 µM
  TGI: 4.44 µM
MOLT-4 leukemia
  GI50: 0.472 µM
M14 melanoma
  GI50: 0.919 µM
  TGI: 2.88 µM
OVCAR-3 ovarian
  GI50: 0.273 µM
  TGI: 0.824 µM
OVCAR-4 ovarian
  GI50: 1.32 µM
  TGI: 9.36 µM
HCT-15 colon
  GI50: 3.12 µM
  TGI: 10.8 µM
SF-295 CNS
  GI50: 1.11 µM
  TGI: 6.07 µM
SK-MEL-28 melanoma
  GI50: 1.03 µM
  TGI: 3.36 µM
SK-MEL-5 melanoma
  GI50: 0.5 µM
  TGI: 2.7 µM
SW-620 colon
  GI50: 0.662 µM
  TGI: 7.54 µM
RPMI-8226 leukemia
  GI50: 0.561 µM
  TGI: > 22.2 µM
BT-549 breast
  GI50: 0.239 µM
  TGI: 0.618 µM
SNB-75 CNS
  GI50: 0.434 µM
  TGI: 1.48 µM
SF-539 CNS
  GI50: 0.383 µM
  TGI: 1.3 µM
OVCAR-8 ovarian
  GI50: 1.28 µM
  TGI: > 30.9 µM
HCC-2998 colon
  GI50: 1.79 µM
  TGI: 4.96 µM
UACC-257 melanoma
  GI50: 2.04 µM
  TGI: 6.69 µM
EKVX NSCLC
  GI50: 2.74 µM
  TGI: 7.27 µM
CAKI-1 renal
  GI50: 1.46 µM
  TGI: 7.01 µM
SR leukemia
  GI50: 0.263 µM
ACHN renal
  GI50: 1.67 µM
  TGI: 18.7 µM
T-47D breast
  GI50: 0.339 µM
  TGI: 3.25 µM
SNB-19 CNS
  GI50: 1.71 µM
  TGI: 12.2 µM
NCI-H23 lung
  GI50: 1.18 µM
  TGI: 3.87 µM
NCI-H460 lung
  GI50: 0.598 µM
  TGI: 11.6 µM
MDA-MB-231 breast
  GI50: 0.387 µM
  TGI: 3.62 µM
HOP-92 NSCLC
  GI50: 0.542 µM
  TGI: 15.4 µM
A549 NSCLC
  GI50: 2.66 µM
  TGI: > 100 µM
OVCAR-5 ovarian
  GI50: 2.92 µM
  TGI: > 42.2 µM
UO-31 renal
  GI50: 1.87 µM
  TGI: 12.6 µM
MALME-3M melanoma
  GI50: 0.289 µM
  TGI: 2.52 µM
COLO 205 colon
  GI50: 0.349 µM
  TGI: 1.33 µM
SN12C renal
  GI50: 0.943 µM
SK-OV-3 ovarian
  GI50: 3.5 µM
  TGI: 36.6 µM
LOX IMVI melanoma
  GI50: 0.207 µM
  TGI: 0.471 µM
HT29 colon
  GI50: 0.394 µM
  TGI: 9.4 µM
UACC-62 melanoma
  GI50: 0.579 µM
  TGI: 1.5 µM
MCF7 breast
  GI50: 0.636 µM
  TGI: 13.1 µM
PC-3 prostate
  GI50: 0.818 µM
  TGI: > 56.3 µM
SF-268 CNS
  GI50: 0.686 µM
  TGI: 13 µM
786-0 renal
  GI50: 0.356 µM
  TGI: 12.3 µM
HS 578T breast
  GI50: 0.478 µM
  TGI: 3.7 µM
NCI-H522 lung
  GI50: 0.258 µM
  TGI: 1.55 µM
CCRF-CEM leukemia
  GI50: 0.791 µM
  TGI: > 43.8 µM
K-562 leukemia
  GI50: 0.838 µM
  TGI: > 52.4 µM
IGROV1 ovarian
  GI50: 1.7 µM
  TGI: 14.4 µM
HL-60(TB) leukemia
  GI50: 0.415 µM
SK-MEL-2 melanoma
  GI50: 0.723 µM
  TGI: 2.67 µM
MDA-MB-435
  GI50: 0.589 µM
  TGI: 2 µM
NCI-H226 lung
  GI50: 1.15 µM
  TGI: 6.26 µM
NCI/ADR-RES ovarian
  GI50: 3.12 µM
  TGI: 16.3 µM
